Experimental data from patent EP2570123A1, “Use of 2,4-dichlorobenzyl alcohol having an anaesthetic effect” (Reckitt Benckiser Healthcare (UK) Limited, priority 2007, dated 2009).

Columns and labels:
[1] = target: T1, α-subunit of NaV1.2 neuronal sodium channels (Rattus norvegicus, UniProt P04775); assay: cell-based; conditions: for sensitivity at -70 mV holding potential compared to hyperpolarized holding potentials: -70 mV versus -100 and/or -150 mV; for nHR: Hill coefficient, resting state binding; for blocking potency compared with lidocaine (words): block of resting channels
Procedure: Stably transfected HEK 293 cell lines expressing the α-subunit of NaV1.2 neuronal sodium channels from a rat were used. The expression vector pRc/CMV (Invitrogen, San Diego, USA) was used for mammalian transfection. Transfection was performed using calcium phosphate precipitation. Permanent expression was achieved by selection for resistance to the aminoglycoside antibiotic geneticin G418 (Life Technology, Eggenstein, Germany).
The stock solution was then dissolved directly in bath solution. The bath solution contained [mM] NaCl 140, MgCl2 1.0, KCl 4.0, CaCl2 2.0, Hepes 5.0, dextrose 5.0. Patch electrodes contained [mM] CsCl2 130, MgCl2 2.0, EGTA 5.0, Hepes 10. All solutions were adjusted to 290 mosm 1^-1 by the addition of mannitol and to pH 7.4 by the addition ofCsOH.
Standard whole-cell voltage-clamp experiments were performed at 20°C. Each experiment consisted of test recordings with the drug present at only one concentration, and of drug-free control recordings before and after the test. Each cell was exposed to one test concentration only. At least three or five independent experiments were performed at each concentration depending on the active being tested.
For data acquisition and further analysis, a EPC9 digitally-controlled amplifier was used in combination with Pulse and Pulse Fit software (HEKA Electronics, Lambrecht, Germany). The EPC9 provides automatic subtraction of capacitive and leakage currents by means of a prepulse protocol. The data were filtered at 10 kHz and digitized at 20 µs per point. The input resistance of the patch pipettes was 2.0-3.5 MΩ and the capacitances of the cells were 9-15 pF; the residual series resistance (after 50% compensation) was 1.2-2.5 MΩ. Experiments with a rise in series resistance were rejected. To minimize time-dependent shifts in the voltage-dependence of steady-state inactivation, all test experiments were performed within 5 min of patch rupture.
Drug effects on the peak current amplitude were assessed at a hyperpolarized membrane potentials (-100 mV and -150mV), at a holding potential close to the normal resting potential in physiological conditions (-70 mV), and, additionally, at -100 mV in the presence of a fraction of slow inactivated channels. Slow inactivation was induced by long (2.5 s) prepulses to -90, -70, -50, -30 and -10 mV, followed by a short hyperpolarization to allow recovery from fast-inactivation. In our protocol the recovery interval was prolonged to 100 ms (instead of 10 ms originally described) in order to allow sufficient time not only for drug-free, but also for all drug-bound states to recover from fast inactivation. The residual sodium current (Inorm) in the presence of a drug (with respect to the peak current elicited with the same protocol during wash-out) elicited with a single test pulse to 0 mV was plotted against the applied concentration of the drug [C]. Concentration-response-curves were fitted using a Hill equation yielding the concentrations for half-maximum channel blockade (ICR50), and the respective Hill coefficients nH. (I)/(Imax) = (IC50^nH)/(IC50^nH + C^nH) [formula] (I)/(Imax) = a(ICR50^nH)/(ICR50^nH + C^nH) + (1-a)(ICI50^nH)/(ICI50^nH + C^nH) [formula]
In the presence of Hexetidine, a 2-state Hill equation, Eq. 2, was applied, yielding the concentrations for half-maximum channel blockade in the inactivated state (ICI50), the respective Hill coefficient nH, and the respective amplitudes a and (1-a). The values previously obtained for ICR50 and nH were entered as constant factors.

[2] = target: T1, α-subunit of NaV1.2 neuronal sodium channels; assay: Whole-cell voltage-clamp, double-pulse protocol: steady-state availability (fast inactivation), voltage shift and model-dependent affinity for inactivated channels; assay type: cell-based; set-up: expressed in transfected cells; host or cells: HEK 293, stably transfected with expression vector pRc/CMV and selected with G418; conditions: for nHI: Hill coefficient for inactivated state binding, model fit of Eq.4; for maximum shift in voltage-dependence of sodium channel availability: negative shift in midpoints of steady-state availability plots
Procedure: Transfection was performed using calcium phosphate precipitation. […] Successful channel expression was verified electrophysiologically.
The bath solution contained [mM] […] Patch electrodes contained [mM]
Each cell was exposed to one test concentration only.
Experiments with a rise in series resistance were rejected.
Drug binding to inactivated channels is hardly accessible to a direct experimental approach, because inactivated channel states and all drug-bound channel states are unavailable on depolarization. A model-dependent method is generally applied to determine the affinity to fast-inactivated channel states. The voltage-dependence of the block and the affinity for fast-inactivated channel states was further assessed by applying a double-pulse protocol. Currents elicited by test pulses (Itest), starting from varying prepulse potentials (from -150 mV to -5 mV), normalized to the current elicited at the most hyperpolarized prepotential (-150 mV), represent the relative fraction of channels that have not been inactivated during the 100 ms inactivating prepulse. Boltzmann fits to the resulting current-voltage plots yield the membrane potential at half-maximum channel availability (V0.5) and the slope factor k, reflecting the 'voltage sensitivity' of inactivation gating (see Eq. 3). (I)/(Imax) = (1)/(1 + e^(((Vtest -V0.5)/(k)))) [formula]
In control conditions, the parameters of the Boltzmann fits reflect the voltage-dependence of the distribution between resting and fast-inactivated channels (the availability curve). In the presence of the drug, the steady-state availability curve reflects drug association with rested and fast-inactivated channels, respectively. […] The underlying assumption is that the higher amount of channel blockade achieved with consecutive membrane depolarization is determined by the distribution of channels between resting and fast-inactivated states along the voltage axis (i.e. the channel availability curve), and by the different binding affinities of the blocking drug for the two channel states. The voltage shift ΔV0.5 in the presence of a drug would depend upon the drug concentration [C] according to Eq. 4. A fit of the model to ΔV0.5 plotted against concentration yields estimates for the concentration for half-maximum effect on fast-inactivated channels ICI50 and the Hill-type coefficient for drug binding to inactivated channels n: ΔV0.5 = k.ln[(1+([C])/(ICR50))/(1+(([C])^n)/(ICR50^n)) [formula]
K and ICR50 are entered as constant factors. K is the slope factor of the availability curve in the controls and ICR50 is the concentration for half-maximum effect on resting channels, obtained at -100 mV holding potential.

[3] = -100 mV, after application of higher concentrations (> EC50)
[4] = ECR50, half maximum blocking concentration, resting channels, fit to concentration-response plots at -150 mV holding potential, HEK 293, 20°C
[5] = estimate for inactivated channels, model fit of Eq.4 to concentration-dependence of the voltage shift in the availability curve, read-out: ECI50

T1 sequence (P04775 whole entry): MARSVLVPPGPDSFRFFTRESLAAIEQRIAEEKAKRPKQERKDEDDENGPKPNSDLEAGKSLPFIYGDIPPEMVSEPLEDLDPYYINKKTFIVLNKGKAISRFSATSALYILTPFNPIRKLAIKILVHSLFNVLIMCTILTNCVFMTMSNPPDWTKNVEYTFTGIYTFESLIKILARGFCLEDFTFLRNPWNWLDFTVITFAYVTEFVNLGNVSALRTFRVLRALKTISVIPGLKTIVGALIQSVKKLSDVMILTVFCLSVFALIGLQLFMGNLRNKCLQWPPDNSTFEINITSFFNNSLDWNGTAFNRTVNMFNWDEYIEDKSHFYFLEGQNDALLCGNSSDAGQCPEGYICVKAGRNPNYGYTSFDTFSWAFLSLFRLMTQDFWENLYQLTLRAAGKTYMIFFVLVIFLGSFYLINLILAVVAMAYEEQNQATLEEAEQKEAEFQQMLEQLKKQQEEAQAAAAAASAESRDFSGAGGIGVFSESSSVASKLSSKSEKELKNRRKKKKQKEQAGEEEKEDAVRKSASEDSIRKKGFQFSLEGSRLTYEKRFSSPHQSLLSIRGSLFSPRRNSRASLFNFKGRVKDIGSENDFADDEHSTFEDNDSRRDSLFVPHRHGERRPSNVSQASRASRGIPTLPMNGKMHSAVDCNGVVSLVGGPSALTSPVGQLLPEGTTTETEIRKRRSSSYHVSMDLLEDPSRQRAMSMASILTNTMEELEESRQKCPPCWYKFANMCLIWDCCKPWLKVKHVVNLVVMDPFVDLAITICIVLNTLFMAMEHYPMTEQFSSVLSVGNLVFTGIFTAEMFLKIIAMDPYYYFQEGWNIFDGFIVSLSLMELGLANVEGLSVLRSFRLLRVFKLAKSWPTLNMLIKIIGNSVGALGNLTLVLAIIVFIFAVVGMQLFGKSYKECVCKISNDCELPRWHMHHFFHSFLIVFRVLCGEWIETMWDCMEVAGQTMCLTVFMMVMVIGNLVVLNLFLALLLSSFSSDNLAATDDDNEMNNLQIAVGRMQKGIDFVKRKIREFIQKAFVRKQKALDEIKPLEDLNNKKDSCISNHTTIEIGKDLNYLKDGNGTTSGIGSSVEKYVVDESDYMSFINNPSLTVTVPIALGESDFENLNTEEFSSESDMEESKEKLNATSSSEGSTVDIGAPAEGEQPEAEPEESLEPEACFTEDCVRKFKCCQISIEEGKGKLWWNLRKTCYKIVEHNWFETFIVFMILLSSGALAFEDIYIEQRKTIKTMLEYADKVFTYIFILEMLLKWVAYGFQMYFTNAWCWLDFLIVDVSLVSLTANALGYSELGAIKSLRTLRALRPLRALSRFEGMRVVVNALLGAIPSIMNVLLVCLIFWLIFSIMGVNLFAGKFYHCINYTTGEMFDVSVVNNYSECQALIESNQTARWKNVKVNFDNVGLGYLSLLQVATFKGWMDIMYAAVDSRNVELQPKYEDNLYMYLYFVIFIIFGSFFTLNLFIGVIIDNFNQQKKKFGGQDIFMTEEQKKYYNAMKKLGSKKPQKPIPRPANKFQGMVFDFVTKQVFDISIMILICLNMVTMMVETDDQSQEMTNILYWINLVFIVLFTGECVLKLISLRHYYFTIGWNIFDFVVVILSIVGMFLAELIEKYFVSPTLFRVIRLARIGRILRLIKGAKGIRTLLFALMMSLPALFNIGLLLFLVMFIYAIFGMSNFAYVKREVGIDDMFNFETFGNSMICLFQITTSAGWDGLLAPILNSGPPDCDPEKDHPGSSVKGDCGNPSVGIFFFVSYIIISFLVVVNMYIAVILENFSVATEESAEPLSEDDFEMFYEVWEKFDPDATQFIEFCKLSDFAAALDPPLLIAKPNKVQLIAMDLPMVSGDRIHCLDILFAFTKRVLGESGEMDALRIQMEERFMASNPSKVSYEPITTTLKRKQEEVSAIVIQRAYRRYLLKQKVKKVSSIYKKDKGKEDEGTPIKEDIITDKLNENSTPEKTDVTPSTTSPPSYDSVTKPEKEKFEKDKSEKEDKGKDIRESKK

Structure (SMILES) | currents during wash-out, % of control current ([1]; -70 mV holding potential) | currents during wash-out, % of control current ([1]; -100 mV holding potential) | currents during wash-out, % of control current [1, 3] | currents during wash-out, % of control current ([1]; -150 mV holding potential) | sensitivity at -70 mV holding potential compared to hyperpolarized holding potentials [1] | IC50 [1, 4] | nHR ([1]; -150 mV holding potential) | estimated affinity to inactivated channels compared to resting channels [2] | nHI [2] | IC50 [2, 5] | maximum shift in voltage-dependence of sodium channel availability [2] | other results
CCCCCc1ccc(C)cc1O [AMC, amylmetacresol] | 64 ± 9% | 91 ± 3% | 94 ± 6% | 90 ± 3% | – | – | – | – | – | – | – | IC50 [1]: 55 µM; potency for block of resting sodium channels relative to lidocaine ([1]; depolarization from the resting state): around 10 fold; IC50 [2]: 22 µM; ECI50 lower than the ECR50 ([2]; inactivated versus resting channels): around 3 fold
OCc1ccc(Cl)cc1Cl [DCBA, 2,4-dichlorobenzyl alcohol] | 63 ± 9% | 89 ± 5% | – | 88 ± 3% | slightly increased | 657 µM | 3.5 | several fold higher | 0.4 | 5.2 µM | -15 mV | currents during wash-out, % of control current amplitude ([1]; -100 mV holding potential, after 300 and 500 µM DCBA): 71 ± 3%; blocking potency compared with lidocaine (words) ([1]; listed as Dichlorobenzyl alcohol): about as potent as lidocaine; blocking potency compared with lidocaine (words) ([1]; listed as dichlorobenzyl alcohol): comparable
CCCCCCc1ccc(O)cc1O [HR, hexylresorcinol] | – | 94 ± 4% | 90 ± 10% | 95 ± 3% | – | 21 µM | – | – | – | 0.3 µM | – | –
CCCCC(CC)CN1CN(CC(CC)CCCC)CC(C)(N)C1 (stereo not drawn) [HT, hexetidine] | 47 ± 11% | – | – | 80 ± 8% | increased | 35 µM | 1.08 | several fold higher | 0.5 | 0.05 µM | -21 mV | concentrations toxic for the seal in whole cell experiments [1]: above 30 µM; block of sodium inward currents ([1]; 100 µM, 3 experiments, not solely attributable to specific channel block): complete block; IC50 ([1]; estimated EC50, high-affinity binding site, biphasic concentration-response curve, two distinct binding sites): 0.001 µM; inhibition at 0.1 µM ([1]; read-out: block, % of the control current amplitude): 41 ± 13%
